Values quoted from earlier work, collected in patent EP3623369A1, “NOVEL MORPHOLINYL AMINE COMPOUNDS FOR THE TREATMENT OF AUTOIMMUNE DISEASE” (F. Hoffmann-La Roche AG, priority 2018, dated 2020).

Target: T1, hTLR7 (Homo sapiens, UniProt Q9NYK1)
T1 sequence (Q9NYK1 27-1049): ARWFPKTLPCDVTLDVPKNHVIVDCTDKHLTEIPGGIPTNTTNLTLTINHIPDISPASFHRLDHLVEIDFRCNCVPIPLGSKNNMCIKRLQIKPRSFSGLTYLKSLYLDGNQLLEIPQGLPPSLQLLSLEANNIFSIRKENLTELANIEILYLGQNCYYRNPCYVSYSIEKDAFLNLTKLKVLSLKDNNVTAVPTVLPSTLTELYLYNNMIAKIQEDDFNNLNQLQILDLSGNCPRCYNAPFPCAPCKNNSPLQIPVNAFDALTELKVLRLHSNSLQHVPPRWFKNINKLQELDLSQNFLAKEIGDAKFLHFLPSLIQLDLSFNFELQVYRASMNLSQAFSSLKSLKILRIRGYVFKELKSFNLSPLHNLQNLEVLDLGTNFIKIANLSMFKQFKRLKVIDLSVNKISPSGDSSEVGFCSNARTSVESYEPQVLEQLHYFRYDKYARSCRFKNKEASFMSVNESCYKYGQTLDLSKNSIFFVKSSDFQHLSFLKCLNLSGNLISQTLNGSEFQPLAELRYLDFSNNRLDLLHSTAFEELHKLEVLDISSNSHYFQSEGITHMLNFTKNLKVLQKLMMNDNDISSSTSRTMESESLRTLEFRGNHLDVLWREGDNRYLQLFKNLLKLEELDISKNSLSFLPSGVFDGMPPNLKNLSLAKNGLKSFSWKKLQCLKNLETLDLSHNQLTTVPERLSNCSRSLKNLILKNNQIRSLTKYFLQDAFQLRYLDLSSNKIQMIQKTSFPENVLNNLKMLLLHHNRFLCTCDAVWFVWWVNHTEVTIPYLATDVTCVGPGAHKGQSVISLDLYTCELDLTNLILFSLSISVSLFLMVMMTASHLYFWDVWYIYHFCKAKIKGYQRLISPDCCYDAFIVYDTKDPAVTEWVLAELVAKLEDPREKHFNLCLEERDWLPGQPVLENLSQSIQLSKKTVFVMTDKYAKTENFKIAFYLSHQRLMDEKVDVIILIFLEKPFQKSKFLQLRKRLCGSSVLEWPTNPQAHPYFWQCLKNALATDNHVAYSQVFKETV
Set-up: host or cells: HEK
Settings: data disclosed in US20150105370; read-out: HEK/hTLR7 IC50; cited from earlier work

SMILES: C[C@@H]1CN(c2ccc(C#N)c3ncccc23)C[C@H](CNCc2ccccc2)O1 [ER-886509, reference compound]
- IC50: 44 nM
